From ChEMBL document CHEMBL3885861, “Open TG-GATES”

Species on record: Rattus norvegicus
Test: Open TG-GATES - Regimen: Daily Repeat
Assay type: toxicity, organism-based, Sprague-Dawley
Parameters: regimen Daily Repeat, gender Male, age 6 weeks
Conditions: in vivo, po, 150 mg/kg, route gavage, dose level Middle; for APTT / Bas / Eos / Fbg / Hb / Ht / Lym / MCH / MCHC / MCV / Mono / Neu / PT / Plat / RBC / Ret / WBC: tissue Blood; for KIDNEY_L / KIDNEY_R / KIDNEY_TOTAL: tissue Kidney; for LIVER: tissue Liver; for A/G / ALP / ALT / AST / BUN / CRE / Ca / Cl / DBIL / GLC / IP / K / LDH / Na / PL / RALB / TBIL / TC / TG / TP / gamma-GTP: tissue Plasma

Structure (SMILES): CN1C(=O)OC(C)(C)C1=O [TRIMETHADIONE]
- TERMINAL_BW (72 h, time 3 day): 237.3 g
- APTT (72 h, time 3 day): 16.6 s
- Bas (72 h, time 3 day): 0%
- Eos (72 h, time 3 day): 1.2%
- Fbg (72 h, time 3 day): 277.6 mg/dL
- Hb (72 h, time 3 day): 13.9 g/dL
- Ht (72 h, time 3 day): 41.2%
- Lym (72 h, time 3 day): 73.4%
- MCH (72 h, time 3 day): 22 pg
- MCHC (72 h, time 3 day): 33.7%
- MCV (72 h, time 3 day): 65.2 fL
- Mono (72 h, time 3 day): 2.8%
- Neu (72 h, time 3 day): 22.6%
- PT (72 h, time 3 day): 13 s
- Plat (72 h, time 3 day): 127.9 x10_4/uL
- RBC (72 h, time 3 day): 632 x10_4/ul
- Ret (72 h, time 3 day): 6.9%
- WBC (72 h, time 3 day): 82.5 x10_2/uL
- KIDNEY_L (72 h, time 3 day): 1 g
- KIDNEY_R (72 h, time 3 day): 0.9 g
- KIDNEY_TOTAL (72 h, time 3 day): 1.9 g
- LIVER (72 h, time 3 day): 11.2 g
- A/G (72 h, time 3 day): 0.8
- ALP (72 h, time 3 day): 1577 IU/L
- ALT (72 h, time 3 day): 42.4 IU/L
- AST (72 h, time 3 day): 78.2 IU/L
- BUN (72 h, time 3 day): 17.2 mg/dL
- CRE (72 h, time 3 day): 0.2 mg/dL
- Ca (72 h, time 3 day): 11.2 mg/dL
- Cl (72 h, time 3 day): 105 meq/L
- DBIL (72 h, time 3 day): 0.004 mg/dL
- GLC (72 h, time 3 day): 180.6 mg/dL
- IP (72 h, time 3 day): 6.9 mg/dL
- K (72 h, time 3 day): 4.4 meq/L
- LDH (72 h, time 3 day): 85.6 IU/L
- Na (72 h, time 3 day): 142.2 meq/L
- PL (72 h, time 3 day): 172.8 mg/dL
- RALB (72 h, time 3 day): 2.6 g/dL
- TBIL (72 h, time 3 day): 0.042 mg/dL
- TC (72 h, time 3 day): 91.4 mg/dL
- TG (72 h, time 3 day): 115.6 mg/dL
- TP (72 h, time 3 day): 5.7 g/dL
- gamma-GTP (72 h, time 3 day): 1 IU/L
- TERMINAL_BW ([…], time 7 day): 275.1 g
- TERMINAL_BW ([…], time 14 day): 335.8 g
- TERMINAL_BW ([…], time 28 day): 410.9 g
- APTT ([…], time 7 day): 22.2 s
- Bas ([…], time 7 day): 0%
- Eos ([…], time 7 day): 1%
- Fbg ([…], time 7 day): 283.8 mg/dL
- Hb ([…], time 7 day): 13.8 g/dL
- Ht ([…], time 7 day): 40.4%
- Lym ([…], time 7 day): 75%
- MCH ([…], time 7 day): 21.5 pg
- MCHC ([…], time 7 day): 34.1%
- MCV ([…], time 7 day): 62.9 fL
- Mono ([…], time 7 day): 2.6%
- Neu ([…], time 7 day): 21.2%
- PT ([…], time 7 day): 13.9 s
- Plat ([…], time 7 day): 129.5 x10_4/uL
- RBC ([…], time 7 day): 642.6 x10_4/ul
- Ret ([…], time 7 day): 5.6%
- WBC ([…], time 7 day): 92.5 x10_2/uL
- APTT ([…], time 14 day): 25.9 s
- Bas ([…], time 14 day): 0.2%
- Eos ([…], time 14 day): 1%
- Fbg ([…], time 14 day): 268.4 mg/dL
- Hb ([…], time 14 day): 14.4 g/dL
- Ht ([…], time 14 day): 41.6%
- Lym ([…], time 14 day): 71.6%
- MCH ([…], time 14 day): 20.8 pg
- MCHC ([…], time 14 day): 34.6%
- MCV ([…], time 14 day): 60.2 fL
- Mono ([…], time 14 day): 2.2%
- Neu ([…], time 14 day): 24.6%
- PT ([…], time 14 day): 13.6 s
- Plat ([…], time 14 day): 123.5 x10_4/uL
- RBC ([…], time 14 day): 691.2 x10_4/ul
- Ret ([…], time 14 day): 4.5%
- WBC ([…], time 14 day): 132.8 x10_2/uL
- APTT ([…], time 28 day): 21.9 s
- Bas ([…], time 28 day): 0%
- Eos ([…], time 28 day): 1.2%
- Fbg ([…], time 28 day): 270.8 mg/dL
- Hb ([…], time 28 day): 15.8 g/dL
- Ht ([…], time 28 day): 45%
- Lym ([…], time 28 day): 74.8%
- MCH ([…], time 28 day): 19.6 pg
- MCHC ([…], time 28 day): 35%
- MCV ([…], time 28 day): 56.2 fL
- Mono ([…], time 28 day): 2%
- Neu ([…], time 28 day): 21.8%
- PT ([…], time 28 day): 14.3 s
- Plat ([…], time 28 day): 113.7 x10_4/uL
- RBC ([…], time 28 day): 800.2 x10_4/ul
- Ret ([…], time 28 day): 2%
- WBC ([…], time 28 day): 103.2 x10_2/uL
- KIDNEY_L ([…], time 7 day): 1.3 g
- KIDNEY_R ([…], time 7 day): 1.2 g
- KIDNEY_TOTAL ([…], time 7 day): 2.5 g
- KIDNEY_L ([…], time 14 day): 1.4 g
- KIDNEY_R ([…], time 14 day): 1.4 g
- KIDNEY_TOTAL ([…], time 14 day): 2.8 g
- KIDNEY_L ([…], time 28 day): 1.6 g
- KIDNEY_R ([…], time 28 day): 1.7 g
- KIDNEY_TOTAL ([…], time 28 day): 3.3 g
- LIVER ([…], time 7 day): 13 g
- LIVER ([…], time 14 day): 15.2 g
- LIVER ([…], time 28 day): 16.5 g
- A/G ([…], time 7 day): 0.9
- ALP ([…], time 7 day): 1744.2 IU/L
- ALT ([…], time 7 day): 51.6 IU/L
- AST ([…], time 7 day): 85.6 IU/L
- BUN ([…], time 7 day): 15.8 mg/dL
- CRE ([…], time 7 day): 0.2 mg/dL
- Ca ([…], time 7 day): 10.8 mg/dL
- Cl ([…], time 7 day): 103.4 meq/L
- DBIL ([…], time 7 day): 0.01 mg/dL
- GLC ([…], time 7 day): 192.6 mg/dL
- IP ([…], time 7 day): 6.9 mg/dL
- K ([…], time 7 day): 4.2 meq/L
- LDH ([…], time 7 day): 92.4 IU/L
- Na ([…], time 7 day): 144.2 meq/L
- PL ([…], time 7 day): 159.8 mg/dL
- RALB ([…], time 7 day): 2.6 g/dL
- TBIL ([…], time 7 day): 0.04 mg/dL
- TC ([…], time 7 day): 74.2 mg/dL
- TG ([…], time 7 day): 138.2 mg/dL
- TP ([…], time 7 day): 5.7 g/dL
- gamma-GTP ([…], time 7 day): 1.2 IU/L
- A/G ([…], time 14 day): 0.8
- ALP ([…], time 14 day): 1516.8 IU/L
- ALT ([…], time 14 day): 46.8 IU/L
- AST ([…], time 14 day): 73.2 IU/L
- BUN ([…], time 14 day): 16.4 mg/dL
- CRE ([…], time 14 day): 0.2 mg/dL
- Ca ([…], time 14 day): 10.7 mg/dL
- Cl ([…], time 14 day): 102.6 meq/L
- DBIL ([…], time 14 day): 0.004 mg/dL
- GLC ([…], time 14 day): 180.6 mg/dL
- IP ([…], time 14 day): 6.6 mg/dL
- K ([…], time 14 day): 4.2 meq/L
- LDH ([…], time 14 day): 116.4 IU/L
- Na ([…], time 14 day): 144.2 meq/L
- PL ([…], time 14 day): 154.4 mg/dL
- RALB ([…], time 14 day): 2.7 g/dL
- TBIL ([…], time 14 day): 0.032 mg/dL
- TC ([…], time 14 day): 73.2 mg/dL
- TG ([…], time 14 day): 138.8 mg/dL
- TP ([…], time 14 day): 6.2 g/dL
- gamma-GTP ([…], time 14 day): 1 IU/L
- A/G ([…], time 28 day): 0.8
- ALP ([…], time 28 day): 1150.5 IU/L
- ALT ([…], time 28 day): 37.8 IU/L
- AST ([…], time 28 day): 77.5 IU/L
- BUN ([…], time 28 day): 16 mg/dL
- CRE ([…], time 28 day): 0.3 mg/dL
- Ca ([…], time 28 day): 10.4 mg/dL
- Cl ([…], time 28 day): 101.8 meq/L
- DBIL ([…], time 28 day): 0.005 mg/dL
- GLC ([…], time 28 day): 170.8 mg/dL
- IP ([…], time 28 day): 5.5 mg/dL
- K ([…], time 28 day): 4.1 meq/L
- LDH ([…], time 28 day): 77.2 IU/L
- Na ([…], time 28 day): 143 meq/L
- PL ([…], time 28 day): 161 mg/dL
- RALB ([…], time 28 day): 2.7 g/dL
- TBIL ([…], time 28 day): 0.0325 mg/dL
- TC ([…], time 28 day): 76.8 mg/dL
- TG ([…], time 28 day): 146.8 mg/dL
- TP ([…], time 28 day): 6.2 g/dL
- gamma-GTP ([…], time 28 day): 1.2 IU/L
